Assays:
[1] = tested on: carbon tetrachloride poisoning; test: Protective activity in the carbon tetrachloride poisoning; assay type: in vivo, male rats (Sprague-Dawley)
Experimental: Fifty male rats (Sprague-Dawley, 180-200 grams bodyweight) were used for the investigation, subdivided into 5 groups: one group was given no treatment while the remaining 4 groups were poisoned for 7 consecutive days with CCl4 at the dosage of […] given subcutaneously.

[2] = tested on: histamine-induced bronchial spasm; test: Bronchial spasm due to histamine aerosol in the guinea-pig; assay type: in vivo, spotted guinea-pigs, male, Morini strain; set-up: key to time of resistance to the spasm, significance vs. controls (S): h.s.: highly significant; conditions: 50 mg/kg; for time of resistance to the spasm, significance vs. controls (S): one hour; for time of resistance to the spasm (E, mean ± standard error): one hour after treatment, control 114.1 ± 5.4
Experimental: Thirty spotted guinea-pigs, male, Morini strain, 400-500 g bodyweight, were used for the investigation, subdivided into 5 lots, each consisting of 6 animals. The animals were singly placed in a tightly sealed plexiglas cage into which a 0.1 percent aqueous solution of histamine hydrochloride was aerosolized. The time of resistance to the spasm was calculated from the moment of introduction into the cage up to the time of the appearance of the dyspnea crisis.
Group 1: controls with no treatment
In any case, the dose was 50 mg/kg.

[3] = tested on: bronchopneumopathies of the pediatric age; test: Clinical trials in pediatry, mucolytic efficacy in bronchopneumopathies; assay type: in vivo, man; conditions: decrease from 292.4±92.1 g/Hg, pediatric patients
elderly patients = assay type: in vivo, man
Experimental: The drug was assessed, with respect to its mucolytic action, on thirty elderly patients ([…], maximal 87, mean age 72). […] The improvement was assessed on the basis of the following parameters:
decrease of the daily quantity of sputum;
decrease of the viscosity of the sputum;
increase of the Tiffeneau's index;
improved value of the erythrocyte sedimentation rate.
A group of twenty patients, in the same mean age, was given for control purposes a known drug such as N-acetylcysteine.

bromobenzene poisoning = test: Protective activity in the bromobenzene poisoning; assay type: in vivo, male rats (Sprague-Dawley)
Experimental: Fifty male rats (Sprague-Dawley, 180-200 g bodyweight) were used for the investigation, subdivided into 5 groups, each consisting of 10 animals, given orally the following compounds
(1) 5 percent gum arabic in tap water
(2) 5 percent gum arabic in tap water
(3) 2-(2-thenoylthio)-propionylglycine--200 mg/kg
(4) 2-(2-thenoylthio)-propionylglycine--300 mg/kg
Seven days later, the animals of the groups 2-3-4-[…] were given bromobenzene subcutaneously (150 mg/rat) while the remaining group (control) was given an equivalent volume of saline. Still seven days later, 5 of the animals of each group were given Nembutal (25 mg/kg/intraperitoneally), and the sleeping time was calculated.
The remaining 5 animals of each group were given bromophthalein at the dose of 50 mg intravenously; thirty minutes later, the animals were sacrificed and both the present bromophthalein and SGPT (serum glutamic pyruvic transaminase) were established in the blood.

[4] = tested on: SO2-induced experimental bronchitis; test: Experimental bronchitis in the rat (SO2 inhalation); assay type: in vivo, male rats, Sprague-Dawley strain; set-up: key to Macroscopic Examination, significance vs. controls (S) / Visualization of the bronchial tract, significance vs. controls (S) / Microscopic Examination, significance vs. controls (S): h.s.: highly significant; conditions: 50 mg/kg; for Visualization of the bronchial tract score (E, mean ± standard error): control 2.50 ± 0.26; for Microscopic Examination score (E, mean ± standard error): control 2.75 ± 0.16
Experimental: For the purpose 40 male rats, Sprague-Dawley strain, 320-370 grams, subdivided into 4 groups each consisting of 10 elements were subjected to the following treatments:
Group 1: poisoning treatment (SO2)
For the poisoning-induction the animals were subjected to a constant air flow containing SO2 at a 0.03 percent concentration. The poisoning treatment was given for 15 days subjecting the rats, 2 hours daily, to an inhalation of SO2 for 15-minute periods. […] The animals were killed on the day following the last inhalation.
The lungs were withdrawn together with the trachea, fixed in 10 percent formalin, and subjected to a macroscopic examination, dipped thereafter into the same fixing fluid for 24 hours, and thereafter for one hour in absolute ethanol.
The bronchial tree was thereafter evidenced with alcian blue; moreover, a subsequent staining was made with the Schiff's reagent in order to evidence the muchopolysaccharides.
Each lung was given the following arbitary score:
(1) Macroscopic Examination:
5=large hemorrhagic spots
(2) Visualization of the Bronchial Tree with Alcian Blue:
1=almost uniform staining
3=quite irregular staining.
(3) Bronchopulmonary Alterations at the Microscopic Examination: […]

[5] = group 3, aerosol (so in the source)

CC(SC(=O)c1cccs1)C(=O)NCC(=O)O (stereo not drawn) [compound (I), 2-(2-thenoylthio)-propionylglycine]
liver weight increase consequent to CCl4 ([1]; CCl4 0.5 ml/mg sc, 7 days, drugs intramuscularly, (I) 200 and 300 mg/kg, (II) 300 mg/kg): can prevent the liver weight increase | efficacy in comparison with 2-mercaptopropionylglycine ([1]; equivalent dosage, CCl4 poisoning, rat): statistically significant efficacy in preventing the liver weight increase as well as in reducing the liver fats levels | bronchial-spasm relieving action ([2]; all the assessed routes): remarkable bronchial-spasm relieving action | time of resistance to the spasm, significance vs. controls (S) ([2]; group 2, orally): h.s. | time of resistance to the spasm (E, mean ± standard error) ([2]; group 2, orally, before treatment 116.00 ± 8.84): 184.7 ± 14.2 s | time of resistance to the spasm, significance vs. controls (S) ([2]; group 3, aerosol): h.s. | time of resistance to the spasm (E, mean ± standard error) ([2]; group 3, aerosol, before treatment 113.00 ± 5.62): 170.3 ± 10.9 s | time of resistance to the spasm, significance vs. controls (S) ([2]; group 4, intraperitoneally): h.s. | time of resistance to the spasm (E, mean ± standard error) ([2]; group 4, intraperitoneally, before treatment 112.16 ± 7.9): 187.2 ± 16.1 s | time of resistance to the spasm, significance vs. controls (S) ([2]; group 5, rectally): h.s. | time of resistance to the spasm (E, mean ± standard error) ([2]; group 5, rectally, before treatment 117.5 ± 6.39): 178.5 ± 11.9 s | mean viscosimetric value of the mucus after treatment [3]: 155.4±61.3 g/Hg | rapidity of action vs N-acetylcysteine (elderly patients; elderly patients): markedly better in terms of rapidity of action | fit of cough on aerosol administration (elderly patients; in vivo): no fit of cough was observed | patients with a marked improvement (elderly patients; of thirty elderly patients, two suppositories daily, each 0.36 grams, six days): Twenty-six | serum concentrations of SGPT (bromobenzene poisoning; oral, 200 and 300 mg/kg, bromobenzene-poisoned rat): significant reduction of the serum concentrations of SGPT | liver impairment induced by bromobenzene (bromobenzene poisoning; oral, 200 and 300 mg/kg, rat): able to reduce the liver impairment | sleeping time (Nembutal) (bromobenzene poisoning; oral, 200 and 300 mg/kg, Nembutal 25 mg/kg ip): statistically significant decrease of the sleeping time | rate of excretion of bromophthalein (bromobenzene poisoning; vs poisoned controls, bromophthalein 50 mg iv, 30 minutes): less evident | Macroscopic Examination, significance vs. controls (S) ([4]; group 2, aerosol): h.s. | Microscopic Examination, significance vs. controls (S) ([4]; group 2, aerosol): h.s. | Visualization of the bronchial tract, significance vs. controls (S) ([4]; group 2, aerosol): h.s. | Visualization of the bronchial tract score (E, mean ± standard error) ([4]; group 2, aerosol): 0.87 ± 0.29 | Microscopic Examination score (E, mean ± standard error) ([4]; group 2, aerosol): 0.87 ± 0.29 | Macroscopic Examination, significance vs. controls (S) [4, 5]: h.s. | Microscopic Examination, significance vs. controls (S) [4, 5]: h.s. | Visualization of the bronchial tract, significance vs. controls (S) [4, 5]: h.s. | Visualization of the bronchial tract score (E, mean ± standard error) [4, 5]: 0.87 ± 0.29 | Microscopic Examination score (E, mean ± standard error) [4, 5]: 0.75 ± 0.31 | Macroscopic Examination score (E, mean ± standard error) ([4]; group 3, aerosol (so in the source), control 4.00 ± 0.26): 1.12 ± 0.39 | Macroscopic Examination, significance vs. controls (S) ([4]; group 4, subcutaneous): h.s. | Microscopic Examination, significance vs. controls (S) ([4]; group 4, subcutaneous): h.s. | Visualization of the bronchial tract, significance vs. controls (S) ([4]; group 4, subcutaneous): h.s. | Visualization of the bronchial tract score (E, mean ± standard error) ([4]; group 4, subcutaneous): 0.75 ± 0.31 | Microscopic Examination score (E, mean ± standard error) ([4]; group 4, subcutaneous): 1.00 ± 0.26 | protective action, experimental bronchitis (SO2) ([4]; rat): marked protective action

— patent US4242354A, “2-(2-Thenolythio)-propionylglycine: method for its preparation and pharmaceutical formulations containing said compound” (Mediolanum Farmaceutici S.r.L., priority 1978, dated 1980)
